Laboratory results reported in PMC4521012, “Distortion of the Major Histocompatibility Complex Class I Binding Groove to Accommodate an Insulin-derived 10-Mer Peptide” (The Journal of Biological Chemistry, 2015).

Tests used:
[1] = test system: G9C8 T-cell clone (insulin-reactive CD8+ T-cells); assay: Staining of insulin-specific CD8 T-cells with H-2K^d·peptide tetramers; type: cell-based, NOD mouse; details: flow cytometry; for Tetramer+ (% of G9C8 clone stained by H-2K^d·peptide tetramer): splenocytes of G9Cα−/− NOD mice, 50 nM dasatinib preincubation, 0.5 μg tetramer, 15 min at 37 °C, gated on live CD8+ cells
[2] = test system: G9C8 T-cell clone (insulin-reactive CD8+ T-cells); assay: T-cell functional assays (proliferation, MIP1β and IFNγ production); type: cell-based, NOD mouse; details: in all assays: [3H]thymidine proliferation, MIP1β and IFNγ ELISA; CD8+ T-cells with bone marrow-derived dendritic cells 10:1
Procedure: Splenic CD8^+ T-cells were purified using a Miltenyi MACS CD8^+ isolation kit (>90% purity) and cultured at 10:1 with bone marrow-derived dendritic cells with the LYLVCGERGF (G9GF), LYLVCGERG (G9G), or LYLVCGERV (G9V) peptide in RPMI medium supplemented with 5% FCS, 2 mM L-glutamine, 0.05 mM 2-mercaptoethanol, penicillin/streptomycin. Each sample was plated in duplicate. After 48 h of incubation, cells were pulsed with 0.5 μCi of [^3H]thymidine for 18 h, harvested, and counted to determine [^3H]thymidine incorporation.
Supernatants were removed from the proliferation assay cultures prior to the addition of [^3H]thymidine. MIP1β was measured by sandwich ELISA (R&D systems), whereas IFNγ was measured using a similar protocol (BD Biosciences) with the modification that the capture antibody was diluted in carbonate buffer and incubated at 4 °C overnight. Plates were blocked at 37 °C for 1 h, and the detection antibody was incubated for 1 h at room temperature.

G9C8 TCR = assay: Surface plasmon resonance analysis of G9C8 TCR binding to peptide-H-2K^d; set-up: species or system NOD mouse; details: SPR, 25 °C
Procedure: Binding analysis was performed using a BIAcore 3000^TM equipped with a CM5 sensor chip as described previously ([41]). Binding analysis was performed four times in independent experiments using pMHC monomers generated in house and from the National Institutes of Health tetramer facility. Approximately 200–500 RU of peptide-H-2K^d (in complex with G9GF, G9G, or G9V) was attached to the CM5 sensor chip at a slow flow rate of 10 μl/min to ensure uniform distribution on the chip surface. Combined with the small amount of peptide-H-2K^d bound to the chip surface, this reduced the likelihood of off-rate-limiting mass transfer effects. The G9C8 TCR was purified and concentrated to ∼140 μM on the same day of surface plasmon resonance analysis to reduce the likelihood of TCR aggregation affecting the results. For equilibrium analysis, eight serial dilutions were prepared in triplicate for each sample and injected over the relevant sensor chips at 25 °C. TCR was injected over the chip surface using kinetic injections at a flow rate of 45 μl/min using H-2K^d·AYAAAAAAV or HLA-A*0201·ALWGPDPAAA in different experiments as negative controls.

H-2K^d = H-2K^d (Mus musculus, UniProt P01902); assay: pMHC stability assay (thermal stability by CD spectroscopy); type: physicochemical, murine; details: CD spectroscopy at 218 nm, 2.5 μM protein in PBS, 4-90 °C in 0.5 °C intervals, two-state trimer-to-monomer fit
Chain of H-2K^d (P01902 whole entry, looked up): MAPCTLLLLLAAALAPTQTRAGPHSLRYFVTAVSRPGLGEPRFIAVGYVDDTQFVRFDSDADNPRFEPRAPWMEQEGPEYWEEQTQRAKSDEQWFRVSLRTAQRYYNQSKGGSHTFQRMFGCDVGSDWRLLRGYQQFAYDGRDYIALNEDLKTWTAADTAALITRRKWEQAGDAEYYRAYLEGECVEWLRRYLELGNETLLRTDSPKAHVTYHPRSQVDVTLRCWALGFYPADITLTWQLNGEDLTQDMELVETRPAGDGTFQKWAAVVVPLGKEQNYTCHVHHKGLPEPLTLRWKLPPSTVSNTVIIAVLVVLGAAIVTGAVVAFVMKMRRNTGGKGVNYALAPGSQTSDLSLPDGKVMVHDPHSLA
Procedure: Thermal stability of H-2K^d complexes was assessed by circular dichroism (CD) spectroscopy, monitoring the change in ellipticities at 218 nm. Data were collected on an Aviv Model 215 spectropolarimeter (Aviv Biomedical Inc., Lakewood, NJ) using a 0.1-cm quartz cell. Proteins were dissolved in PBS at concentrations of 2.5 μM. Melting curves were recorded in 0.5 °C intervals from 4 °C up to a maximum temperature of 90 °C when protein aggregation was observed. Melting curves were analyzed assuming a two-state trimer-to-monomer transition from the native (N) to unfolded (U) conformation N3 ↔ 3U with an equilibrium constant K = [U]^3/[N3] = F/(3c^2(1 − F)^3), where F and c are the degree of folding and protein concentration, respectively. Data were fitted as described ([38]). Fitted parameters were the melting temperature (Tm), van't Hoff's enthalpy (ΔHvH), and the slope and intercept of the native baseline. Because all protein complexes aggregated upon unfolding, the ellipticity of the unfolded state was set as a constant of −4,500 degrees cm^2 dmol^−1 ([39], [40]).

Sequence | Tetramer+ (% of G9C8 clone stained by H-2K^d·peptide tetramer) [1] [%] | Sensitivity of the G9C8 T-cell clone to G9G compared with G9GF [2] | G9C8 TCR affinity for the altered ligand compared with the native ligands (higher) (G9C8 TCR) [times] | Mean fluorescence intensity of tetramer staining, compared with H-2K^d·G9G tetramer (in words) ([1]; different concentrations of each tetramer) | Melting temperature of the H-2K^d complex, difference to G9G and G9GF (higher) (H-2K^d) | Sensitivity of the G9C8 T-cell clone to G9V compared with G9G [2]
LYLVCGERG [G9G, native insulin B chain 9-mer peptide, tested as complex or tetramer with H-2K^d] | 85.7 | about 5 times |  |  |  | 
LYLVCGERV [G9V] | 87.9 |  | > 10 | substantially higher | over 20 °C | at least 5 times
